Target: RAC-alpha serine/threonine-protein kinase (Homo sapiens, UniProt P31749)
Assay: TR-FRET assay: For the assay 50 nl of a 100fold concentrated solution of the test compound in DMSO was pipetted into a black low volume 384well microtiter plate (Greiner Bio- One, Frickenhausen, Germany), 2 ul of a solution of Akt1 in assay buffer [50 mM TRIS/HCI pH 7.5, 5 mM MgCI2, 1 mM dithiothreitol, 0.02% (v/v) Triton X-100 (Sigma)] were added and the mixture was incubated for 15 min at 22 C to allow pre-binding of the test compounds to the enzyme before the start of the kinase reaction. Then the kinase reaction was started by the addition of 3 ul of a solution of adenosine-tri-phosphate (ATP, 16.7 ul => final cone, in the 5 ul assay volume is 10 ul) and substrate (1 .67 ul => final cone, in the 5 ul assay volume is 1 ul) in assay buffer and the resulting mixture was incubated for a reaction time of 60 min at 22 C. The concentration of Akt1 in the assay was adjusted depending of the activity of the enzyme lot.

Sequence of RAC-alpha serine/threonine-protein kinase (P31749 whole entry): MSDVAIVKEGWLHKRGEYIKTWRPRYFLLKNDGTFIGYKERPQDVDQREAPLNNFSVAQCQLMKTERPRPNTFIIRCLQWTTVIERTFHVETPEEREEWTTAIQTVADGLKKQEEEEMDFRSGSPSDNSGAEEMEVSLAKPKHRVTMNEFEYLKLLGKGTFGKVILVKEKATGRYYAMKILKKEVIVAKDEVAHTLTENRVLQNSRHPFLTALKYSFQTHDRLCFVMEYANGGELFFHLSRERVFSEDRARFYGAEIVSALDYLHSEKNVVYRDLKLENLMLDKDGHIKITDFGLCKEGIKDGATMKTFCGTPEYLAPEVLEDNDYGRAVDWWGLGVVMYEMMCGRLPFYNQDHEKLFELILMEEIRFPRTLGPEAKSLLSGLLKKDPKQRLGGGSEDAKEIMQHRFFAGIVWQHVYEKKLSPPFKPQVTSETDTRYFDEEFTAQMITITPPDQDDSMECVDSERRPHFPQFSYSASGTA

**Q.** For `NC1(c2ccc(-c3nc4c5cc(F)ccc5nn4cc3-c3ccccc3)cc2)CCC1`, which IC50 is on record?
**A.** 93 nM

**Q.** Which IC50 does the source give for `NC1(c2ccc(-c3nc4c5cc(-c6ccc(F)cc6)ccc5nn4cc3-c3ccccc3)cc2)CCC1` here?
**A.** 110 nM

**Q.** For `N#Cc1cccc(-c2ccc3nn4cc(-c5ccccc5)c(-c5ccc(C6(N)CCC6)cc5)nc4c3c2)c1`, which IC50 is on record?
**A.** 67 nM

**Q.** `N#Cc1ccc(-c2cccc3nn4cc(-c5ccccc5)c(-c5ccc(C6(N)CCC6)cc5)nc4c23)cc1` was tested. Which IC50 did it give?
**A.** 320 nM

**Q.** Which IC50 does the source give for `N#Cc1cccc(-c2cccc3c2nn2cc(-c4ccccc4)c(-c4ccc(C5(N)CCC5)cc4)nc32)c1` here?
**A.** 10000 nM

**Q.** How did the IC50 turn out when `N#Cc1cccc2c1nn1cc(-c3ccccc3)c(-c3ccc(C4(N)CCC4)cc3)nc21` was run?
**A.** 49 nM

**Q.** For `NC1(c2ccc(-c3nc4c5cccc(O)c5nn4cc3-c3ccccc3)cc2)CCC1`, which IC50 is on record?
**A.** 100 nM
